Assay results from patent US20220098547A1, “HYDROGEL BIOMIMETIC FOR INVASIVE DISEASES” (priority 2018, published 2022).

Legend:
TSC2+/− LAM-SMCs [1] = assay: Cell viability (SyTox Green), LAM-SMCs; assay type: cell-based, human; conditions: for cell viability, selectivity towards LAM-SMCs vs control SMCs: 80 kinase inhibitor screen, 5 μM, 384-well 3D hydrogel
Method: (§1) HA (230 kDa) was functionalized with furfurylamine as previously described^[16] Furanyl-modified HA/MMPx-(maleimide)2 hydrogels were prepared as previously described ^[16] with the following modifications: To prepare 1.0 mL of 0.9% HA hydrogel with 25 μM vitronectin peptide for SMC culture, HA-furanyl (65% furanyl substitution, 9.0 mg HA, 13.3 μmol furanyl) was dissolved in 450 μL of dPBS (adjusted to pH 6.5), and added to 357.7 μL of dPBS (pH 6.5). 150.1 μL of maleimide2-MMP-degradable crosslinker peptide dissolved in 0.1 M MES buffer (pH 5.5, 50 mg/mL, 2.8 μmol of peptide, 5.6 μmol of maleimide) and 3.75 μL of maleimide-vitronectin peptide dissolved in 0.1 M MES buffer (pH 5.5, 12 mg/mL, 25 nmol) were added to the HA-furanyl solution and carefully mixed to prevent the formation of air bubbles. 38.5 μL of a thiolated methyl cellulose solution (2.6 mg/mL MC-SH in DI H2O, 100 nmolfree thiols/mgMC) was then added to this solution and mixed carefully with a pipette. Hydrogel formulations were tuned for lung cancer cells. For culturing primary cells from lung cancer tissue biopsies, 100 μM vitronectin peptides were used. For NCI-H1299, NCI-H446 and human bronchial epithelial cells, 100 μM vitronectin peptides and 100 μM fibronectin peptides were used. To prepare gels in 384-well plates, 15 μL of the hydrogel solutions were added to each well in a 384-well plate and placed in the incubator overnight at 37° C.
(§2) Excess sterile water was then added to wells lining the outside of the plates to prevent hydrogel evaporation. […] Gels were then equilibrated with either RPMI-1640 containing 1% FBS (for lung cancer cells) or M231 SMC media (75 μL, >45 mins). Media was then removed, and for SMC culture, 15 μL of M231 supplemented with 25% SMGS (containing a final FBS concentration of 1%) was added into each well for at least 1 h prior to cell seeding. For drug treatment assays, this 15 μL volume of M231 with 25% SMGS also includes a 5× concentration of the desired drug. For larger drug screening assays, Y-27632 (Rock inhibitor, 10 μM) was used as a negative control for cell invasion, and verteporfin (1 μM) was used as a positive control for cell toxicity (SyTox Green staining). For lung cancer cell culture, cells in RPMI media containing 1% FBS was added to each well.
(§3) SMCs were cultured according to reported protocols.^[12a] In brief, cells were cultured in M231 media with Smooth Muscle Growth Supplement (SMGS) and gentamycin (ThermoFisher Scientific) at 37° C. with 5% CO2. Cells were passaged using 0.05% trypsin/EDTA for 3 min at 37° C., and inhibited using M231 media. 3000 cells in 45 μL of M231 without SMGS were added to each well of a 384-well plate containing 3D HA hydrogels.
(§4) After 5 days of culture in 3D HA gels, 30 μL media was carefully removed. To each well, 20 μL of a solution containing SyTox Green (1/50,000) in PBS was added and incubated for 1.5 h at 37° C. Gels were then carefully washed with PBS twice. Cells were then fixed with 4% PFA for 1.5 h in the dark at room temperature. PFA was removed and gels were washed with PBS. A solution of Hoechst (1/1000, 20 μL) was then added to each well for at least 1.5 h in the dark, followed by washing with PBS (3 times). To label the gel surface, fluorescent microspheres (100 nm, orange, Phosphorex) were diluted in PBS (1/100) and centrifuged to separate larger, aggregated microspheres. 20 μL of the resulting supernatant were then added to each well and the 384-well plate was left undisturbed overnight. For drug screening experiments involving treatment with 80 drugs simultaneously, silica gel particles (40-63 μm, 230-400 mesh, SiliCycle) were used to label the […]. A slurry solution (5 mg/mL) of silica gel particles in PBS containing 0.01% sodium azide was mixed and immediately added to each well. Particles settled after 20 seconds and plates could be immediately imaged.
(§5) Z-stacked images were obtained using a Cellomics high content imaging instrument as described above. […]

MMP9 = assay: Gelatin zymography of conditioned media (MMP9 secretion), LAM-SMCs; assay type: cell-based, human; conditions: Y-27632 treatment (10 μM per FIG. 8 legend)
Method: After 1 day of culture, conditioned media from 384-well plates was collected from each well for gelatin zymography. 8% polyacrylamide (PA) gels were used, and were prepared as previously described^[22] In general, the separating gel component of the zymography gels comprised 7.5 mL of 1.5 M Tris buffer (pH 8.8), 8.0 mL polyacrylamide solution (30%), 10.2 mL gelatin A (3 mg/mL), 2.7 mL water, 300 μL SDS, 300 μL 10% ammonium persulfate, and 36 μL TEMED. The separating gel was allowed to gel for 40 min at room temperature. The stacking gel was then prepared by mixing 5.0 mL of 0.5 M Tris buffer (pH 6.8), 2.6 mL polyacrylamide solution (30%), 12.2 mL water, 200 μL SDS, 150 μL 10% ammonium persulfate, and 30 μL TEMED. The stacking gel was poured on top of each gel and allowed to sit for 40 mins.
For each sample, 12 μL of conditioned media was mixed with 3 μL loading dye, and 12 μL was loaded into each lane. Running buffer comprising 25 mM Tris, 190 mM glycine and 0.1% SDS was used for gel electrophoresis. Following protein separation on the PA gels, gels were washed in 2.5% Triton X (3 times, 10 min each) to remove residual SDS, followed by DI water (5 times, 30 min each). Gels were then placed in an incubation buffer (50 mM Tris buffer pH 7.5 containing 5 mM CaCl2, 200 mM NaCl) and incubated at 37° C. overnight. […]

TSC2+/+ control SMCs = assay: Cell invasion into 3D HA hydrogels, control SMCs; assay type: cell-based, human; conditions: Y-27632 treatment (10 μM per FIG. 8 legend)
Method: as §1, with “To prepare gels in 384-well plates, 15 μL of the hydrogel solutions were added to each well in a 384-well plate and placed in the incubator overnight at 37° C.” left out

TSC2+/− LAM-SMCs [2] = assay: Cell invasion into 3D HA hydrogels, LAM-SMCs; assay type: cell-based, human; conditions: for invasion, selectivity towards LAM-SMCs vs control SMCs: 80 kinase inhibitor screen, 5 μM, 384-well 3D hydrogel
Method: as §1, §2, §3, §4, §5

VEGF-A = conditions: some glioblastoma patients; cited from earlier work
Sequence of VEGF-A (P15692 207-311 limits assumed): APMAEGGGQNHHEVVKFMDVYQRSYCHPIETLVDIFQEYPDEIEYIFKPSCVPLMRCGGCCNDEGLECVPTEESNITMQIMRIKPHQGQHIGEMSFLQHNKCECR

C[C@@H](N)[C@H]1CC[C@H](C(=O)Nc2ccncc2)CC1 [Y-27632]
cell viability (TSC2+/− LAM-SMCs [1]; Y-27632 treatment (10 μM per FIG. 8 legend), LAM-SMCs, 3D HA gels): neither cell viability nor MMP9 secretion levels of LAM-SMCs were affected | MMP9 secretion levels (MMP9): neither cell viability nor MMP9 secretion levels of LAM-SMCs were affected | cell invasion (TSC2+/+ control SMCs): significantly decreased cell invasion | cell invasion (TSC2+/− LAM-SMCs [2]; Y-27632 treatment (10 μM per FIG. 8 legend), LAM-SMCs): significantly decreased cell invasion

CC(C)CC(=O)Nc1[nH]nc2c1CN(C(=O)C1CCN(C)CC1)C2(C)C [PHA-793887]
cell viability, selectivity towards LAM-SMCs vs control SMCs (TSC2+/− LAM-SMCs [1]): selective decrease | invasion, selectivity towards LAM-SMCs vs control SMCs (TSC2+/− LAM-SMCs [2]): selective decrease

TC-A 2317 NCI
cell viability, selectivity towards LAM-SMCs vs control SMCs (TSC2+/− LAM-SMCs [1]): selective decrease | invasion, selectivity towards LAM-SMCs vs control SMCs (TSC2+/− LAM-SMCs [2]): selective decrease

Nc1nc(Nc2ccc(S(N)(=O)=O)cc2)nn1C(=S)Nc1c(F)cccc1F [Cdk1/2 inhibitor]
cell viability, selectivity towards LAM-SMCs vs control SMCs (TSC2+/− LAM-SMCs [1]): selective decrease | invasion, selectivity towards LAM-SMCs vs control SMCs (TSC2+/− LAM-SMCs [2]): selective decrease

bevacizumab
tumor metastasis (VEGF-A): increased tumor metastasis | tumor size (VEGF-A): decreased tumor sizes

CNC(=O)[C@H](Cc1c[nH]c2ccccc12)NC(=O)[C@@H](CC(=O)NO)CC(C)C [GM6001]
cell invasion (TSC2+/− LAM-SMCs [2]; 10 μM, invasive LAM-SMCs, 3D hydrogels): modest, yet statistically significant decrease in cell invasion

Cc1ncc(-c2ccnc(Nc3ccc(S(C)(=O)=O)cc3)n2)n1C(C)C [AZD5438]
cell viability, selectivity towards LAM-SMCs vs control SMCs (TSC2+/− LAM-SMCs [1]): selective decrease | invasion, selectivity towards LAM-SMCs vs control SMCs (TSC2+/− LAM-SMCs [2]): selective decrease

Cc1cc(Nc2cc(N3CCN(C)CC3)nc(/C=C/c3ccccc3)n2)n[nH]1 [ENMD-2076]
cell viability, selectivity towards LAM-SMCs vs control SMCs (TSC2+/− LAM-SMCs [1]): selective decrease | invasion, selectivity towards LAM-SMCs vs control SMCs (TSC2+/− LAM-SMCs [2]): selective decrease

CN1CCC(c2c(O)cc(O)c3c(=O)cc(-c4ccccc4Cl)oc23)C1CO (single isomer, unassigned; (+)) [(+)-P276]
cell viability, selectivity towards LAM-SMCs vs control SMCs (TSC2+/− LAM-SMCs [1]): selective decrease | invasion, selectivity towards LAM-SMCs vs control SMCs (TSC2+/− LAM-SMCs [2]): selective decrease
